This test deals with P388 leukemia ip, CD2F1 mice, survival T/C. Description: NCI In Vivo Anticancer Drug Screen. Data for tumor model P388 Leukemia (intraperitoneal) in CD2F1 (CDF1) mice. Conditions: endpoint: median survival time, higher = longer survival. Summed up:
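Mice carrying the transplanted tumor received test compound or vehicle. Survival was recorded in each group, and the value is the treated-group measurement divided by that of the vehicle-treated control group.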

Where [1] appears, read: dose: 12.5 mg/kg/injection, schedule: Q01DX009 (ip), vehicle: Klucel (hydroxypropylcellulose) (HPC).
The mark [2] stands for this setting: dose: 25.0 mg/kg/injection, schedule: Q01DX009 (ip), vehicle: Klucel (hydroxypropylcellulose) (HPC).
Where [3] appears, read: dose: 50.0 mg/kg/injection, schedule: Q01DX009 (ip), vehicle: Klucel (hydroxypropylcellulose) (HPC).
Setting [4] is: dose: 100.0 mg/kg/injection, schedule: Q01DX009 (ip), vehicle: Klucel (hydroxypropylcellulose) (HPC).
[5] abbreviates: dose: 50.0 mg/kg/injection, schedule: Q01DX005 (ip), vehicle: saline with Tween-80.
Setting [6] is: dose: 100.0 mg/kg/injection, schedule: Q01DX005 (ip), vehicle: saline with Tween-80.
[7] abbreviates: dose: 200.0 mg/kg/injection, schedule: Q01DX005 (ip), vehicle: saline with Tween-80.
The mark [8] stands for this setting: dose: 100.0 mg/kg/injection, schedule: Q04DX003 (ip), vehicle: saline with Tween-80.
[9] abbreviates: dose: 200.0 mg/kg/injection, schedule: Q04DX003 (ip), vehicle: saline with Tween-80.
The mark [10] stands for this setting: dose: 400.0 mg/kg/injection, schedule: Q04DX003 (ip), vehicle: saline with Tween-80.
Setting [11] is: dose: 50.0 mg/kg/injection, schedule: Q01DX009 (ip), vehicle: saline.
[12] abbreviates: dose: 100.0 mg/kg/injection, schedule: Q01DX009 (ip), vehicle: saline.
The mark [13] stands for this setting: dose: 200.0 mg/kg/injection, schedule: Q01DX009 (ip), vehicle: saline.
Setting [14] is: dose: 50.0 mg/kg/injection, schedule: Q01DX005 (ip), vehicle: Klucel (hydroxypropylcellulose) (HPC).
Setting [15] is: dose: 100.0 mg/kg/injection, schedule: Q01DX005 (ip), vehicle: Klucel (hydroxypropylcellulose) (HPC).
[16] abbreviates: dose: 200.0 mg/kg/injection, schedule: Q01DX005 (ip), vehicle: Klucel (hydroxypropylcellulose) (HPC).
Setting [17] is: dose: 100.0 mg/kg/injection, schedule: Q01DX001 (ip), vehicle: saline with Tween-80.
Setting [18] is: dose: 200.0 mg/kg/injection, schedule: Q01DX001 (ip), vehicle: saline with Tween-80.
[19] abbreviates: dose: 400.0 mg/kg/injection, schedule: Q01DX001 (ip), vehicle: saline with Tween-80.
The mark [20] stands for this setting: dose: 60.0 mg/kg/injection, schedule: Q01DX005 (ip), vehicle: saline with Tween-80.
Where [21] appears, read: dose: 120.0 mg/kg/injection, schedule: Q01DX005 (ip), vehicle: saline with Tween-80.

Among the data in PubChem BioAssay AID330 (DTP/NCI, 2004) are T/C values, retold here.

SMILES strings stand for the structures. “And” between values parts separate entries of the source, which are not always exact repeats. Equal entries are not always repeated. Inconclusive results and toxic doses are left out.

Turning to `O=c1c2ccccc2nc(-c2ccccc2)n1O`, the T/C runs as follows: under setting [1], 103 % of control and 112 % of control; under setting [2], 118 % of control and 94 % of control; under setting [3], 120 % of control; under setting [4], 94 % of control; (dose: 200.0 mg/kg/injection, schedule: Q01DX009 (ip), vehicle: Klucel (hydroxypropylcellulose) (HPC)) 91 % of control.

As to `CN(C(=[Se])[Se]C(=[Se])N(C)C1CCCCC1)C1CCCCC1`, the T/C was 95 % of control (dose: 15.0 mg/kg/injection, schedule: Q01DX005 (ip), vehicle: Klucel (hydroxypropylcellulose) (HPC)); 96 % of control (dose: 30.0 mg/kg/injection, schedule: Q01DX005 (ip), vehicle: Klucel (hydroxypropylcellulose) (HPC)); 100 % of control and 93 % of control (dose: 60.0 mg/kg/injection, schedule: Q01DX005 (ip), vehicle: Klucel (hydroxypropylcellulose) (HPC)); 99 % of control (dose: 120.0 mg/kg/injection, schedule: Q01DX005 (ip), vehicle: Klucel (hydroxypropylcellulose) (HPC)).

As to `COc1cc2c(cc1OC)C(C)N(C)c1c-2c(OC(C)=O)cc2cc(OC)c(OC)cc12` (configuration not stated), the T/C under setting [5] is 97 % of control, the T/C under setting [6] is 100 % of control and the T/C under setting [7] was 92 % of control.

`O=C1CC2(CCCC2)C(=O)N1c1cccc(Cl)c1`: the T/C is 97 % of control (dose: 100.0 mg/kg/injection, schedule: Q01DX001 (ip), vehicle: Klucel (hydroxypropylcellulose) (HPC)); 100 % of control (dose: 200.0 mg/kg/injection, schedule: Q01DX001 (ip), vehicle: Klucel (hydroxypropylcellulose) (HPC)); 91 % of control (dose: 400.0 mg/kg/injection, schedule: Q01DX001 (ip), vehicle: Klucel (hydroxypropylcellulose) (HPC)).

With `CC1=N[N+](C)(C)C([O-])=C1C`, the T/C is, setting by setting: under setting [5], 103 % of control; under setting [6], 97 % of control; under setting [7], 100 % of control.

`C#CCN(C)/N=N/c1nc[nH]c1C(N)=O`: the T/C by setting is: under setting [1], 115 % of control; under setting [2], 122 % of control; under setting [3], 120 % of control; under setting [4], 112 % of control.

As for `Nc1ccc(SSc2ccc(Nc3ccnc4cc(Cl)ccc34)cc2)cc1`, the T/C under setting [5] was 92 % of control, the T/C under setting [6] was 93 % of control and the T/C under setting [7] was 91 % of control.

As for `CCC(=O)O[C@H]1CC[C@H]2[C@@H]3[C@@H](C)CC4=CC(=O)CC[C@]4(C)[C@H]3CC[C@]12C`, the T/C was 90 % of control under setting [8], 90 % of control under setting [9] and 90 % of control under setting [10].

As to `CCOC(=O)NCCCCC(N)C(=O)O` (configuration not stated), the T/C was 97 % of control under setting [11], 102 % of control under setting [12] and 102 % of control under setting [13].

Regarding `N#CCC(=O)N/N=C(\CC1(O)C(=O)Nc2c(Cl)cc(Cl)cc21)c1cccc2ccccc12` (configuration not stated), the T/C runs as follows: (dose: 12.5 mg/kg/injection, schedule: Q01DX005 (ip), vehicle: saline with Tween-80) 90 % of control; (dose: 25.0 mg/kg/injection, schedule: Q01DX005 (ip), vehicle: saline with Tween-80) 89 % of control; under setting [5], 88 % of control; under setting [6], 88 % of control.

In the case of `Cc1ccc2nc3cc(N)ccc3c(-c3ccc(N)cc3)c2c1`, the T/C was 97 % of control under setting [14], 102 % of control under setting [15] and 97 % of control under setting [16].

Consider `COc1cc2c(c(OC)c1OC)-c1ccc(OC)c(=O)cc1C(NC(=O)CO)CC2` (configuration not stated), for which the T/C is 104 % of control and 111 % of control (dose: 0.16 mg/kg/injection, schedule: Q01DX009 (ip), vehicle: Klucel (hydroxypropylcellulose) (HPC)); 153 % of control and 157 % of control (dose: 0.62 mg/kg/injection, schedule: Q01DX009 (ip), vehicle: Klucel (hydroxypropylcellulose) (HPC)).

In the case of `C=C(CN1CCN(C)CC1)C(=O)c1ccccc1`, the T/C runs as follows: (dose: 1.89 mg/kg/injection, schedule: Q01DX005 (ip), vehicle: saline) 113 % of control; (dose: 3.75 mg/kg/injection, schedule: Q01DX005 (ip), vehicle: saline) 116 % of control; (dose: 7.5 mg/kg/injection, schedule: Q01DX005 (ip), vehicle: saline) 105 % of control and 112 % of control.

Take `COc1cc(/C=C/C(=O)NCCc2ccc(OCc3ccccc3)c(OC)c2)ccc1OCc1ccccc1`: the T/C is 88 % of control under setting [17], 89 % of control under setting [18] and 90 % of control under setting [19].

Regarding `CCOC(=O)C1=C(C(=O)c2ccc(C)cc2)C(c2ccc([N+](=O)[O-])cc2)C(C(=O)c2ccc(C)cc2)=C(C(=O)OCC)N1`, the T/C was 90 % of control under setting [20] and 90 % of control under setting [21].

As for `CCNc1ccc(/C=C2\C=Cc3ccccc32)cc1`, the T/C under setting [2] was 110 % of control.

In the case of `O=C1NC(CO)C(=O)NC1CO` (configuration not stated), the T/C reads like this: (dose: 12.5 mg/kg/injection, schedule: Q01DX009 (ip), vehicle: distilled water + Tween-80) 90 % of control; (dose: 25.0 mg/kg/injection, schedule: Q01DX009 (ip), vehicle: distilled water + Tween-80) 92 % of control; (dose: 50.0 mg/kg/injection, schedule: Q01DX009 (ip), vehicle: distilled water + Tween-80) 90 % of control; under setting [11], 98 % of control; (dose: 50.0 mg/kg/injection, schedule: Q04DX003 (ip), vehicle: saline with Tween-80) 100 % of control; (dose: 100.0 mg/kg/injection, schedule: Q01DX009 (ip), vehicle: distilled water + Tween-80) 93 % of control. Further, the T/C under setting [12] is 95 % of control; the T/C under setting [8] was 100 % of control; the T/C (dose: 200.0 mg/kg/injection, schedule: Q01DX009 (ip), vehicle: distilled water + Tween-80) is 90 % of control; the T/C under setting [13] is 98 % of control; the T/C under setting [9] is 99 % of control; the T/C (dose: 400.0 mg/kg/injection, schedule: Q01DX009 (ip), vehicle: distilled water + Tween-80) is 90 % of control. The T/C (dose: 400.0 mg/kg/injection, schedule: Q01DX009 (ip), vehicle: saline) was 104 % of control and the T/C under setting [10] was 99 % of control.

Turning to `Cc1cc(=O)c2ccc(N(C)C)cc2[nH]1`, the T/C by setting is: under setting [5], 95 % of control; under setting [6], 96 % of control; under setting [7], 101 % of control.

With `C1CN2CCO[Si](CC[Si]34OCCN(CCO3)CCO4)(O1)OCC2`, the T/C by setting is: under setting [14], 106 % of control; under setting [15], 113 % of control; under setting [16], 94 % of control.

As for `CN1C(=O)n2c(nc3ccccc32)C(N2CCOCC2)(N2CCOCC2)C1=O`, the T/C was 103 % of control under setting [17], 96 % of control under setting [18] and 89 % of control under setting [19].

As for `CC(=O)OC1C=CC2OC2(COC(=O)c2ccccc2)C1OC(C)=O` (configuration not stated), the T/C runs as follows: (dose: 2.5 mg/kg/injection, schedule: Q01DX009 (ip), vehicle: Klucel (hydroxypropylcellulose) (HPC)) 87 % of control; (dose: 5.0 mg/kg/injection, schedule: Q01DX009 (ip), vehicle: Klucel (hydroxypropylcellulose) (HPC)) 99 % of control; (dose: 10.0 mg/kg/injection, schedule: Q01DX009 (ip), vehicle: Klucel (hydroxypropylcellulose) (HPC)) 92 % of control; (dose: 28.75 mg/kg/injection, schedule: Q01DX005 (ip), vehicle: saline + Tween-80 + alcohol) 100 % of control; (dose: 57.5 mg/kg/injection, schedule: Q01DX005 (ip), vehicle: saline + Tween-80 + alcohol) 102 % of control; (dose: 115.0 mg/kg/injection, schedule: Q01DX005 (ip), vehicle: saline + Tween-80 + alcohol) 100 % of control. The T/C (dose: 230.0 mg/kg/injection, schedule: Q01DX005 (ip), vehicle: saline + Tween-80 + alcohol) was 100 % of control.

On to `CCNC(=O)NS(=O)(=O)c1ccc(Sc2ccc(C)cc2)nc1`, for which the T/C under setting [20] is 98 % of control; the T/C under setting [21] is 101 % of control; the T/C (dose: 240.0 mg/kg/injection, schedule: Q01DX005 (ip), vehicle: saline with Tween-80) was 94 % of control.
